Reference: PubChem BioAssay (NCI)
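Interpolation was linear, between the two tested concentrations surrounding the appropriate level; five concentrations were tested over 48 hours in 96-well plates. Here, GI50 denotes the concentration required for 50% inhibition of growth. TGI is the concentration that stops growth completely.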

What was measured:
Experiment in all cases: NCI-60 cell line screen, 48 h
786-0 renal = test system: 786-0 renal
A498 renal = test system: A498 renal
A549 NSCLC = test system: A549 NSCLC
ACHN renal = test system: ACHN renal
BT-549 breast = test system: BT-549 breast
CAKI-1 renal = test system: CAKI-1 renal
CCRF-CEM leukemia = test system: CCRF-CEM leukemia
COLO 205 colon = test system: COLO 205 colon
DLD-1 colon = test system: DLD-1 colon
DU-145 prostate = test system: DU-145 prostate
EKVX NSCLC = test system: EKVX NSCLC
HCC-2998 colon = test system: HCC-2998 colon
HCT-116 colon = test system: HCT-116 colon
HCT-15 colon = test system: HCT-15 colon
HL-60(TB) leukemia = test system: HL-60(TB) leukemia
HOP-18 NSCLC = test system: HOP-18 NSCLC
HOP-62 NSCLC = test system: HOP-62 NSCLC
HS 578T breast = test system: HS 578T breast
HT29 colon = test system: HT29 colon
IGROV1 ovarian = test system: IGROV1 ovarian
K-562 leukemia = test system: K-562 leukemia
KM20L2 colon = test system: KM20L2 colon
LOX IMVI melanoma = test system: LOX IMVI melanoma
LXFL 529 NSCLC = test system: LXFL 529 NSCLC
M14 melanoma = test system: M14 melanoma
M19-MEL melanoma = test system: M19-MEL melanoma
MALME-3M melanoma = test system: MALME-3M melanoma
MCF7 breast = test system: MCF7 breast
MDA-MB-435 = test system: MDA-MB-435
MDA-N = test system: MDA-N
MOLT-4 leukemia = test system: MOLT-4 leukemia
NCI-H226 lung = test system: NCI-H226 lung
NCI-H23 lung = test system: NCI-H23 lung
NCI-H460 lung = test system: NCI-H460 lung
NCI-H522 lung = test system: NCI-H522 lung
NCI/ADR-RES ovarian = test system: NCI/ADR-RES ovarian
OVCAR-3 ovarian = test system: OVCAR-3 ovarian
OVCAR-4 ovarian = test system: OVCAR-4 ovarian
OVCAR-5 ovarian = test system: OVCAR-5 ovarian
OVCAR-8 ovarian = test system: OVCAR-8 ovarian
PC-3 prostate = test system: PC-3 prostate
RPMI-8226 leukemia = test system: RPMI-8226 leukemia
RXF 393 renal = test system: RXF 393 renal
RXF-631 renal = test system: RXF-631 renal
SF-268 CNS = test system: SF-268 CNS
SF-295 CNS = test system: SF-295 CNS
SF-539 CNS = test system: SF-539 CNS
SK-MEL-2 melanoma = test system: SK-MEL-2 melanoma
SK-MEL-28 melanoma = test system: SK-MEL-28 melanoma
SK-MEL-5 melanoma = test system: SK-MEL-5 melanoma
SK-OV-3 ovarian = test system: SK-OV-3 ovarian
SN12C renal = test system: SN12C renal
SNB-19 CNS = test system: SNB-19 CNS
SNB-75 CNS = test system: SNB-75 CNS
SNB-78 CNS = test system: SNB-78 CNS
SR leukemia = test system: SR leukemia
SW-620 colon = test system: SW-620 colon
T-47D breast = test system: T-47D breast
TK-10 renal = test system: TK-10 renal
U251 CNS = test system: U251 CNS
UACC-257 melanoma = test system: UACC-257 melanoma
UACC-62 melanoma = test system: UACC-62 melanoma
UO-31 renal = test system: UO-31 renal
XF 498 CNS = test system: XF 498 CNS
DMS 114 small cell lung = test system: DMS 114 small cell lung
DMS 273 small cell lung = test system: DMS 273 small cell lung
HOP-92 NSCLC = test system: HOP-92 NSCLC
KM12 colon = test system: KM12 colon

`COC1/C=C\C=C(/C)C(=O)NC2=CC(=O)C(N)=C(CC(C)CC(OC)C(O)C(C)C=C(C)C1OC(N)=O)C2=O` (centres undefined) gave a TGI (786-0 renal) greater than 100 µM, a TGI (A498 renal) greater than 96.4 µM and a TGI (A549 NSCLC) of 40.9 µM. For the same molecule, the TGI (ACHN renal) was 83.5 µM, the GI50 (BT-549 breast) was 0.0806 µM and the TGI (BT-549 breast) was greater than 45.2 µM. The TGI (CAKI-1 renal) was greater than 89.8 µM, the TGI (CCRF-CEM leukemia) was 35.8 µM and the GI50 (COLO 205 colon) was 0.0614 µM. For the same molecule, the TGI (COLO 205 colon) was 0.0507 µM, the TGI (DLD-1 colon) was 17.7 µM and the GI50 (DU-145 prostate) was 0.067 µM. For the same molecule, the TGI (DU-145 prostate) was 31.7 µM, the TGI (EKVX NSCLC) was 63 µM and the TGI (HCC-2998 colon) was 1.74 µM. It also gave a TGI (HCT-116 colon) of 25.3 µM, a TGI (HCT-15 colon) of 31.5 µM and a TGI (HL-60(TB) leukemia) of 19.3 µM. For the same molecule, the TGI (HOP-18 NSCLC) was 32.4 µM, the TGI (HOP-62 NSCLC) was greater than 78 µM and the TGI (HS 578T breast) was 59.4 µM. It also gave a GI50 (HT29 colon) of 0.0337 µM, a TGI (HT29 colon) greater than 63.7 µM and a TGI (IGROV1 ovarian) of 25.9 µM. For the same molecule, the GI50 (K-562 leukemia) was 0.0982 µM, the TGI (K-562 leukemia) was greater than 69.6 µM and the TGI (KM20L2 colon) was 0.0192 µM. The GI50 (LOX IMVI melanoma) was 0.0761 µM, the TGI (LOX IMVI melanoma) was 1.55 µM and the TGI (LXFL 529 NSCLC) was greater than 100 µM. For the same molecule, the GI50 (M14 melanoma) was 0.0379 µM, the TGI (M14 melanoma) was 33.4 µM and the TGI (M19-MEL melanoma) was 12.5 µM. The TGI (MALME-3M melanoma) was 15.4 µM, the TGI (MCF7 breast) was 37.6 µM and the GI50 (MDA-MB-435) was 0.051 µM. The TGI (MDA-MB-435) was 14.9 µM, the GI50 (MDA-N) was 0.0829 µM and the TGI (MDA-N) was 12.6 µM. The TGI (MOLT-4 leukemia) was 48.7 µM, the TGI (NCI-H226 lung) was greater than 100 µM and the GI50 (NCI-H23 lung) was 0.0375 µM. For the same molecule, the TGI (NCI-H23 lung) was 21.5 µM, the GI50 (NCI-H460 lung) was 0.0459 µM and the TGI (NCI-H460 lung) was greater than 54.7 µM. It also gave a TGI (NCI-H522 lung) of 0.392 µM, a TGI (NCI/ADR-RES ovarian) greater than 100 µM and a TGI (OVCAR-3 ovarian) of 20.2 µM. The TGI (OVCAR-4 ovarian) was 36.9 µM, the TGI (OVCAR-5 ovarian) was 39.7 µM and the TGI (OVCAR-8 ovarian) was 33.9 µM. For the same molecule, the TGI (PC-3 prostate) was greater than 75.7 µM, the TGI (RPMI-8226 leukemia) was 65.4 µM and the TGI (RXF 393 renal) was greater than 94.7 µM. The TGI (RXF-631 renal) was greater than 100 µM, the TGI (SF-268 CNS) was 68.6 µM and the TGI (SF-295 CNS) was greater than 62.2 µM. It also gave a GI50 (SF-539 CNS) of 0.0397 µM, a TGI (SF-539 CNS) greater than 44.4 µM and a TGI (SK-MEL-2 melanoma) of 14.9 µM. The GI50 (SK-MEL-28 melanoma) was 0.0513 µM, the TGI (SK-MEL-28 melanoma) was greater than 73.8 µM and the TGI (SK-MEL-5 melanoma) was 15.8 µM. It also gave a GI50 (SK-OV-3 ovarian) of 0.0822 µM, a TGI (SK-OV-3 ovarian) greater than 100 µM and a TGI (SN12C renal) of 29 µM. For the same molecule, the TGI (SNB-19 CNS) was 93.7 µM, the TGI (SNB-75 CNS) was 11.3 µM and the TGI (SNB-78 CNS) was 91.1 µM. For the same molecule, the GI50 (SR leukemia) was less than 0.01 µM, the TGI (SR leukemia) was 1.64 µM and the GI50 (SW-620 colon) was 0.0468 µM. It also gave a TGI (SW-620 colon) of 17.4 µM, a TGI (T-47D breast) of 33.7 µM and a TGI (TK-10 renal) greater than 77.2 µM. For the same molecule, the GI50 (U251 CNS) was 0.0822 µM, the TGI (U251 CNS) was greater than 48.9 µM and the TGI (UACC-257 melanoma) was 14.5 µM. For the same molecule, the GI50 (UACC-62 melanoma) was 0.0322 µM, the TGI (UACC-62 melanoma) was 18.4 µM and the TGI (UO-31 renal) was 40.4 µM. For the same molecule, the TGI (XF 498 CNS) was 24.8 µM.

Molecule `COC1=CC(=Nc2c(Cl)cc(Cl)cc2OC(=O)c2ccc([N+](=O)[O-])cc2)C=C(OC)C1=O` has a TGI (786-0 renal) of 28 µM, a TGI (A549 NSCLC) of 23.4 µM and a TGI (ACHN renal) of 22.6 µM. It also gave a TGI (CAKI-1 renal) of 31.7 µM, a TGI (CCRF-CEM leukemia) greater than 25.9 µM and a TGI (COLO 205 colon) of 33.6 µM. It also gave a TGI (DLD-1 colon) of 30 µM, a TGI (DMS 114 small cell lung) of 8.52 µM and a TGI (DMS 273 small cell lung) of 30.5 µM. It also gave a TGI (EKVX NSCLC) of 29.5 µM, a TGI (HCC-2998 colon) of 32.4 µM and a TGI (HCT-116 colon) of 18.9 µM. It also gave a TGI (HCT-15 colon) of 20.8 µM, a TGI (HL-60(TB) leukemia) of 12.1 µM and a TGI (HOP-62 NSCLC) of 36.2 µM. The TGI (HOP-92 NSCLC) was 14.8 µM, the TGI (HT29 colon) was 33.5 µM and the TGI (IGROV1 ovarian) was 31.2 µM. For the same molecule, the TGI (K-562 leukemia) was 27 µM, the TGI (KM12 colon) was 29.4 µM and the TGI (KM20L2 colon) was 32.8 µM. It also gave a TGI (LOX IMVI melanoma) of 5.67 µM, a TGI (LXFL 529 NSCLC) of 18.5 µM and a TGI (M14 melanoma) of 25.8 µM. For the same molecule, the TGI (M19-MEL melanoma) was 10.8 µM, the TGI (MALME-3M melanoma) was 28.9 µM and the TGI (MOLT-4 leukemia) was 26.7 µM. The TGI (NCI-H226 lung) was 28.7 µM, the TGI (NCI-H23 lung) was 22.9 µM and the TGI (NCI-H460 lung) was 31.3 µM. It also gave a TGI (NCI-H522 lung) of 23.6 µM, a TGI (OVCAR-3 ovarian) of 20.9 µM and a TGI (OVCAR-4 ovarian) of 21.9 µM. The TGI (OVCAR-5 ovarian) was 33.7 µM, the TGI (OVCAR-8 ovarian) was 20.2 µM and the TGI (RPMI-8226 leukemia) was greater than 39.1 µM. It also gave a TGI (RXF 393 renal) of 24.6 µM, a TGI (RXF-631 renal) of 11.1 µM and a TGI (SF-268 CNS) of 23.2 µM. It also gave a TGI (SF-295 CNS) of 23.7 µM, a TGI (SF-539 CNS) of 23.4 µM and a TGI (SK-MEL-2 melanoma) of 29.9 µM. It also gave a TGI (SK-MEL-28 melanoma) of 30.5 µM, a TGI (SK-MEL-5 melanoma) of 20.4 µM and a TGI (SK-OV-3 ovarian) of 30.8 µM. For the same molecule, the TGI (SN12C renal) was 24.3 µM, the TGI (SNB-19 CNS) was 30 µM and the TGI (SNB-75 CNS) was 27.8 µM. It also gave a TGI (SNB-78 CNS) of 56.9 µM, a TGI (SR leukemia) of 15.3 µM and a TGI (SW-620 colon) of 26.8 µM. For the same molecule, the TGI (TK-10 renal) was 37.4 µM, the TGI (U251 CNS) was 27.1 µM and the TGI (UACC-257 melanoma) was 24.2 µM. The TGI (UACC-62 melanoma) was 15.6 µM, the TGI (UO-31 renal) was 24.3 µM and the TGI (XF 498 CNS) was 21.5 µM.
